From patent US9249453B2, “Method for identifying a malodor inhibitor” (Kao Corporation, priority 2011, dated 2016)
“Also recorded” adds a separate entry of the source.

Assays:
[1] = molecular target: T1, OR5K1 (Homo sapiens, UniProt Q8NHB7); experiment: Luciferase reporter assay: odorant response of OR5K1 expressed in HEK293 cells; format: cell-based; conditions: for response of olfactory receptor at different concentration: 0, 3, 10, 30, 100, 300, and 1000 μM odorant, OR5K1, FIG. 2/3
T1 construct: expressed in transfected cells; host or cells: HEK293
T1 sequence (Q8NHB7 1-308): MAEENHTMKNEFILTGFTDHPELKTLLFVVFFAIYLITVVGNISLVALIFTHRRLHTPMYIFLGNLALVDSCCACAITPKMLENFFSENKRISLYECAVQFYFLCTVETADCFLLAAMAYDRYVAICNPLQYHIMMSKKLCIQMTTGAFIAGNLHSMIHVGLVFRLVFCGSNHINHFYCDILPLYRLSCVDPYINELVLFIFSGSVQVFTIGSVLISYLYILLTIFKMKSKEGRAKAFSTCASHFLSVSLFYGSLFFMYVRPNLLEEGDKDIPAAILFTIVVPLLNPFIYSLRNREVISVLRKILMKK
Description: (§1) Each of the 369 types of human olfactory receptors was expressed in HEK293 cells. A reaction solution having a composition shown in Table 1 was prepared on a clean bench, and left to stand for 15 minutes. The solution was dispensed to each well of a 96-well plate (BD). Subsequently, HEK293 cells (100 μL, 3×10^5 cells/cm^2) were seeded in each well and cultured for 24 hours in an incubator at 37° C. and under 5% CO2 conditions.
(§2) The olfactory receptor expressed in HEK293 cells activates adenylate cyclase with the aid of Gαs present in cells, to thereby increase intracellular cAMP level. In this study, odorant response was measured by a luciferase reporter gene assay which monitored the intracellular cAMP level as the luminescence value derived from a firefly luciferase gene (fluc2P-CRE-hygro). Also, a Renilla luciferase gene fused downstream of a CMV promoter (hRluc-CMV) was also transfected to HEK293 cells as an internal standard to correct errors in gene transfer efficiency and number of cells.
(§3) The culture medium was removed from the culture plate produced in (3) above, and a solution (75 μL) containing an odorant substance (1 mM skatole) in CD293 medium (Invitrogen) was added to each well. […] Luciferase activity was measured by means of a Dual-Glo™ luciferase assay system (promega) according to an instruction manual thereof. The luminescence value derived from firefly luciferase induced by odorant stimulation was divided by the luminescence value of cells which were not stimulated with odorants. […]
(§4) In a manner similar to that employed in Example 1, each of olfactory receptor OR2W1 (SEQ ID NO: 2), OR5K1 (SEQ ID NO: 4), OR5P3 (SEQ ID NO: 6), and OR8H1 (SEQ ID NO: 8) was expressed with RTP1S mutant (SEQ ID NO: 12) in HEK293 cells. The response of each receptor to skatole (0, 3, 10, 30, 100, 300, and 1000 μM) was determined.
(§5) In a manner similar to that employed in Example 2, the response of each olfactory receptor to skatole and indole (each 0, 3, 10, 30, 100, 300, and 1000 μM) was determined.

[2] = molecular target: T2, OR8H1 (Homo sapiens, UniProt Q8NGG4); experiment: Luciferase reporter assay: odorant response of OR8H1 expressed in HEK293 cells; format: cell-based; conditions: for response of olfactory receptor at different concentration: 0, 3, 10, 30, 100, 300, and 1000 μM odorant, OR8H1, FIG. 2/3
T2 construct: expressed in transfected cells; host or cells: HEK293
T2 sequence (Q8NGG4 1-311): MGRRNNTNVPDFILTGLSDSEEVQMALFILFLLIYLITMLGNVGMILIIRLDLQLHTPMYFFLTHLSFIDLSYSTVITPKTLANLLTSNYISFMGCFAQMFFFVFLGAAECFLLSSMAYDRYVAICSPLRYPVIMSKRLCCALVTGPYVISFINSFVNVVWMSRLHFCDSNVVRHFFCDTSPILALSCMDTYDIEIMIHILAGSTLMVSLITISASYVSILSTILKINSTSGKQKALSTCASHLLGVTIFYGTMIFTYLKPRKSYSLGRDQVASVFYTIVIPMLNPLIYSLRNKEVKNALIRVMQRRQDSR
Description: as §1, §2, §3, §4, §5

[3] = molecular target: T3, OR5P3 (Homo sapiens, UniProt Q8WZ94); experiment: Luciferase reporter assay: odorant response of OR5P3 expressed in HEK293 cells; format: cell-based; conditions: for response of olfactory receptor at different concentration: 0, 3, 10, 30, 100, 300, and 1000 μM odorant, OR5P3, FIG. 2/3
T3 construct: expressed in transfected cells; host or cells: HEK293
T3 sequence (Q8WZ94 1-311): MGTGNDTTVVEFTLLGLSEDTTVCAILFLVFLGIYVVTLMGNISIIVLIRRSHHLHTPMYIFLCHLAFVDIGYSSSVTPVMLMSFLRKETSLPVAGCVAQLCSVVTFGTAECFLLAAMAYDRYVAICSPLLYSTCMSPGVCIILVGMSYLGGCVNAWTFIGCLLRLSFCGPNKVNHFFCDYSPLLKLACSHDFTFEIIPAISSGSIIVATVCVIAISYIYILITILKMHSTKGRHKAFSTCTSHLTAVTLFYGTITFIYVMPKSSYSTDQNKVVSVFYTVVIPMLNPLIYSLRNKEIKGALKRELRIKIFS
Description: as §1, §2, §3, §4, §5

[4] = molecular target: T4, OR2W1 (Homo sapiens, UniProt Q9Y3N9); experiment: Luciferase reporter assay: odorant response of OR2W1 expressed in HEK293 cells; format: cell-based; conditions: for response of olfactory receptor at different concentration: 0, 3, 10, 30, 100, 300, and 1000 μM odorant, OR2W1, FIG. 2/3
T4 construct: expressed in transfected cells; host or cells: HEK293
T4 sequence (Q9Y3N9 1-320): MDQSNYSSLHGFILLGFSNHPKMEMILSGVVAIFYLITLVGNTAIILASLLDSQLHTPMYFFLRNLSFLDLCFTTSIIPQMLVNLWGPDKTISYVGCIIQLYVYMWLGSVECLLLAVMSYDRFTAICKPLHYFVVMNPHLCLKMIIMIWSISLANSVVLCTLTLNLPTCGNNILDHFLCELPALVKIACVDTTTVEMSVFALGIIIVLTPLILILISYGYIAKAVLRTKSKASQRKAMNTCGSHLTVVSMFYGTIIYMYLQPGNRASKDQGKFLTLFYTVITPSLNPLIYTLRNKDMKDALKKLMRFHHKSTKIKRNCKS
Description: as §1, §2, §3, §4, §5

[5] = molecular target: T1, OR5K1; experiment: Luciferase reporter assay: suppression of the skatole response of OR5K1 expressed in HEK293 cells; format: cell-based; conditions: 4 h; test substance 100 μM mixed with 300 μM skatole, HEK293 cells expressing OR5K1; read-out: Inhibition rate 5K1
Description: as §1, with “A” for “Each of the 369 types of human olfactory receptors was expressed in HEK293 cells. A”
as §2
(§6) Cell culturing was performed for four hours in a CO2-incubator, whereby the luciferase gene sufficiently expressed in the cells. Luciferase activity was measured by means of a Dual-Glo™ luciferase assay system (promega) according to an instruction manual thereof. The luminescence value derived from firefly luciferase induced by odorant stimulation was divided by the luminescence value of cells which were not stimulated with odorants. The thus-obtained—called “fold increase”—was employed as an index for response intensity.
(§7) The response inhibition rate of a test substance was calculated as follows. Firstly, luminescence value derived from firefly luciferase induced by stimulation with skatole (X), and luminescence value in cells which expressed the same receptor but were not stimulated with skatole (Y) were determined. By subtracting Y from X, the receptor activity by stimulation with skatole alone (X−Y) was determined. Similarly, the luminescence value induced by stimulation with a mixture of skatole and a test substance (Z) was determined. Through subtracting Y (the luminescence value in cells which expressed the same receptor but were not stimulated with skatole) from Z, the receptor activity (Z−Y) by stimulation with a mixture of skatole and the test substance was obtained. From the thus-obtained receptor activity by stimulation with skatole alone (X−Y) and the receptor activity in the presence of a test material (Z−Y), the response inhibition rate of the test substance was calculated by the following equation: Inhibition rate (%)={1−(Z−Y)/(X−Y)}×100.
(§8) In each case, multiple independent experiments were performed in duplicate, and the average of each experiment was used.

[6] = molecular target: T3, OR5P3; experiment: Luciferase reporter assay: suppression of the skatole response of OR5P3 expressed in HEK293 cells; format: cell-based; conditions: test substance 100 μM mixed with 300 μM skatole, HEK293 cells expressing OR5P3
Description: as §1, with “A” for “Each of the 369 types of human olfactory receptors was expressed in HEK293 cells. A”
as §2, §6, §7, §8

[7] = Sensory test by panelists: suppression of hexanoic acid odor; format: in vivo; conditions: Example 6: hexanoic acid 1% and test substance 1% in propylene glycol, n=3, FIG. 5
Description: (§9) A cotton ball was put into a glass bottle (Hakuyo. Glass No. 11, capacity: 110 mL), and skatole diluted by 0.001% with propylene glycol (20 μL) and a test substance also diluted by 0.001% (20 μL) were added to the cotton ball. The glass bottle was left to stand for one night at room temperature, to thereby sufficiently evaporate the odorant molecule. The sensory test was performed by four panelists. In the case where skatole alone was added to a glass bottle, the odor intensity was rated to 5. Then, the malodor intensity in the case where skatole and a test substance were added was evaluated with a rating of 0 to 10 (by 0.5) (i.e., 20 ratings) In order to investigate specificity of malodor suppressing effect of a test substance identified in Example 4, the sensory test was also performed with hexanoic acid, a malodorous compound but structurally differs from skatole. In the experiment, hexanoic acid diluted by 1% with propylene glycol was used as a malodorous compound, and methyl dihydrojasmonate diluted by 1% with propylene glycol was used as a test substance.

[8] = molecular target: T4, OR2W1; experiment: Luciferase reporter assay: suppression of the skatole response of OR2W1 expressed in HEK293 cells; format: cell-based; conditions: 4 h; test substance 100 μM mixed with 300 μM skatole, HEK293 cells expressing OR2W1; read-out: Inhibition rate 2W1
Description: as §1, with “A” for “Each of the 369 types of human olfactory receptors was expressed in HEK293 cells. A”
as §2, §6, §7, §8

[9] = molecular target: T2, OR8H1; experiment: Luciferase reporter assay: suppression of the skatole response of OR8H1 expressed in HEK293 cells; format: cell-based; conditions: 4 h; test substance 100 μM mixed with 300 μM skatole, HEK293 cells expressing OR8H1; read-out: Inhibition rate 8H1
Description: as §1, with “A” for “Each of the 369 types of human olfactory receptors was expressed in HEK293 cells. A”
as §2, §6, §7, §8

[10] = Sensory test by panelists: suppression of skatole odor; format: in vivo; conditions: Example 6: test substance diluted by 1% with propylene glycol, n=3, FIG. 5
Description: as §9, with “Glass No. 11, capacity: 110 mL), and skatole diluted by 0.001% with propylene glycol (20 μL) and a test substance also diluted by 0.001% (20 μL) were added to the cotton ball.” left out

| response of olfactory receptor (fold increase) ([1]; 1 mM odorant, OR5K1, FIG. 1) | response of olfactory receptor (fold increase) ([2]; 1 mM odorant, OR8H1, FIG. 1) | response of olfactory receptor (fold increase) ([3]; 1 mM odorant, OR5P3, FIG. 1) | response of olfactory receptor (fold increase) ([4]; 1 mM odorant, OR2W1, FIG. 1) | inhibition at 100 µM [5] | Inhibition rate 5P3 [6] | inhibition at 100 µM [8] | inhibition at 100 µM [9] | Structure (SMILES) | response of olfactory receptor at different concentration [1] | response of olfactory receptor at different concentration [2] | response of olfactory receptor at different concentration [3] | response of olfactory receptor at different concentration [4] | suppression effect on hexanoic acid odor [7] | suppression effect on skatole odor [10] |
| --- | --- | --- | --- | --- | --- | --- | --- | --- | --- | --- | --- | --- | --- | --- |
| exhibited response | exhibited response | exhibited response | exhibited response |  |  |  |  | Cc1c[nH]c2ccccc12 [skatole] | dose-dependent response; also recorded: exhibited a response | dose-dependent response; also recorded: exhibited a response | dose-dependent response; also recorded: exhibited a response | dose-dependent response; also recorded: exhibited a response |  |  |
|  |  |  |  |  |  |  |  | c1ccc2[nH]ccc2c1 [indole] | exhibited a response | exhibited a response | exhibited a response | exhibited a response |  |  |
|  |  |  |  | < 20% | B (B >50%) | 50 to 80% | 50 to 80% | CCCCCC1C(=O)CCC1CC(=O)OC (stereo not drawn) [methyl dihydrojasmonate, Methyl 2-penthyl-3-oxocyclopent-1-yl acetate] |  |  |  |  | did not suppress hexanoic acid odor | suppressed skatole odor |
